Results published in patent publication US20100104659A1, “BENZOPYRANOPYRAZOLES” (priority 2006, published 2010).
Structures can show the parent of a compound that is named as a salt.

System: not given
Assay: not given
Conditions: not given

melting point [°C]	Molecule
145	CN(C)CCCN(C)C(=O)N1N=C2c3cc(F)ccc3OC[C@@H]2[C@@H]1c1cccc(O)c1 (racemic) (as salt: salt) [Example 6, (3RS,3aRS)-8-Fluoro-3-(3-hydroxy-phenyl)-3a,4-dihydro-3H-chromeno[4,3-c]pyrazole-2-carboxylic acid (3-dimethylamino-propyl)-methyl-amide]
248 to 250	CN(C)CCN(C)C(=O)N1N=C2c3cc(F)ccc3OC[C@@H]2[C@@H]1c1ccccc1 (racemic) (as salt: salt) [Example 19, (3RS,3aRS)-8-Fluoro-3-phenyl-3a,4-dihydro-3H-chromeno[4,3-c]pyrazole-2-carboxylic acid (2-dimethylamino-ethyl)-methyl-amide]
117	CN(C)C(=O)N1N=C2c3cc(F)ccc3OC[C@@H]2[C@@H]1c1ccccc1 (racemic) [Example 7, (3RS,3aRS)-8-Fluoro-3-phenyl-3a,4-dihydro-3H-chromeno[4,3-c]pyrazole-2-carboxylic acid dimethylamide]
102 to 105	CC(C)N(C)C(=O)N1N=C2c3cc(F)ccc3OC[C@@H]2[C@@H]1c1ccccc1 (racemic) [Example 13, (3RS,3aRS)-8-Fluoro-3-phenyl-3a,4-dihydro-3H-chromeno[4,3-c]pyrazole-2-carboxylic acid isopropyl-methyl-amide]
133 to 137	CCN(C)C(=O)N1N=C2c3cc(F)ccc3OC[C@@H]2[C@@H]1c1ccccc1 (racemic) [Example 14, (3RS,3aRS)-8-Fluoro-3-phenyl-3a,4-dihydro-3H-chromeno[4,3-c]pyrazole-2-carboxylic acid ethyl-methyl-amide]
196	CN(C(=O)N1N=C2c3cc(F)ccc3OC[C@@H]2[C@@H]1c1ccccc1)C1CCNCC1 (racemic) [Example 16, (3RS,3aRS)-8-Fluoro-3-phenyl-3a,4-dihydro-3H-chromeno[4,3-c]pyrazole-2-carboxylic acid methyl-piperidin-4-yl-amide]
142	O=C(N(C1CCNCC1)C1CC1)N1N=C2c3cc(F)ccc3OC[C@@H]2[C@@H]1c1ccccc1 (racemic) [Example 17, (3RS,3aRS)-8-Fluoro-3-phenyl-3a,4-dihydro-3H-chromeno[4,3-c]pyrazole-2-carboxylic acid cyclopropyl-piperidin-4-yl-amide]
113.2	CN(CCN)C(=O)N1N=C2c3cc(F)ccc3OC[C@@H]2[C@@H]1c1ccccc1 (stereo in doubt) [Example 18, (3RS,3aRS)-8-Fluoro-3-phenyl-3a,4-dihydro-3H-chromeno[4,3-c]pyrazole-2-carboxylic acid (2-amino-ethyl)-methyl-amide]

System: RKO human colon adenocarcinoma cells (RKOp27 subclone), proliferating
Assay: Alamar Blue cell viability assay, RKO p27 uninduced (proliferating)
Conditions: RKOp27, 72 h, read-out: −log EC50 [mol/l] RKO p27 uninduced (proliferating), anti-proliferative/cytotoxic activity (converted)
Method: The anti-proliferative/cytotoxic activity of the compounds described herein can be tested on subclones of RKO human colon adenocarcinoma cells (Schmidt et al., Oncogene 19, 2423-2429; 2000) using the Alamar Blue cell viability assay (described in O'Brien et al. Eur J Biochem 267, 5421-5426, 2000). The compounds are dissolved as 10 mM solutions in DMSO and subsequently diluted in semi-logarithmic steps. DMSO dilutions are further diluted 1:100 into Dulbecco's modified Eagle's medium (DMEM) containing 10% fetal calf serum to a final concentration twice as much as the final concentration in the test. RKO subclones are seeded into 96 well flat bottom plates at a density of 4000 cells per well in a volume of 50 μl per well. 24 hours after seeding the 50 μl each of the compound dilutions in DMEM medium are added into each well of the 96 well plate. Each compound dilution is tested as triplicates. Wells containing untreated control cells are filled with 50 μl DMEM medium containing 1% DMSO. The cells are then incubated with the substances for 72 hours at 37° C. in a humidified atmosphere containing 5% carbon dioxide. To determine the viability of the cells, 10 μl of an Alamar Blue solution (Biosource) are added and the fluorescence is measured at an extinction of 544 nm and an emission of 590 nm. For the calculation of the cell viability the emission value from untreated cells is set as 100% viability and the emission rates of treated cells are set in relation to the values of untreated cells. Viabilities are expressed as % values. The Graphpad Prism program (GraphPad Software, Inc) is used for the calculation of EC50 values for anti-proliferative/cytotoxic activity out of the obtained dose-response curves.
Each compound dilution is tested as triplicates. Wells containing untreated control cells are filled with 50 μl DMEM medium containing 1% DMSO. The cells are then incubated with the substances for 72 hours at 37° C. in a humidified atmosphere containing 5% carbon dioxide. To determine the viability of the cells, 10 μl of an Alamar Blue solution (Biosource) are added and the fluorescence is measured at an extinction of 544 nm and an emission of 590 nm. For the calculation of the cell viability the emission value from untreated cells is set as 100% viability and the emission rates of treated cells are set in relation to the values of untreated cells. Viabilities are expressed as % values. The Graphpad Prism program is used for the calculation of EC50 values out of the obtained dose-response curves. Viability is compared of proliferating cells grown in the absence of the inducer Ponasterone A, versus viability of cells arrested by the expression of ectopic p27Kip1 induced by Ponasterone A.

Molecule	EC50 [µM]
CN(C)C(=O)N1N=C2c3cc(F)ccc3OC[C@@H]2[C@@H]1c1ccccc1 (racemic) [Example 7, (3RS,3aRS)-8-Fluoro-3-phenyl-3a,4-dihydro-3H-chromeno[4,3-c]pyrazole-2-carboxylic acid dimethylamide]	0.1 to 1
CCN(C)C(=O)N1N=C2c3cc(F)ccc3OC[C@@H]2[C@@H]1c1ccccc1 (racemic) [Example 14, (3RS,3aRS)-8-Fluoro-3-phenyl-3a,4-dihydro-3H-chromeno[4,3-c]pyrazole-2-carboxylic acid ethyl-methyl-amide]	0.1 to 1
CN(C(=O)N1N=C2c3cc(F)ccc3OC[C@@H]2[C@@H]1c1ccccc1)C1CCNCC1 (racemic) [Example 16, (3RS,3aRS)-8-Fluoro-3-phenyl-3a,4-dihydro-3H-chromeno[4,3-c]pyrazole-2-carboxylic acid methyl-piperidin-4-yl-amide]	≤ 0.1
O=C(N(C1CCNCC1)C1CC1)N1N=C2c3cc(F)ccc3OC[C@@H]2[C@@H]1c1ccccc1 (racemic) [Example 17, (3RS,3aRS)-8-Fluoro-3-phenyl-3a,4-dihydro-3H-chromeno[4,3-c]pyrazole-2-carboxylic acid cyclopropyl-piperidin-4-yl-amide]	0.1 to 1
CCN(CCCN(C)C(=O)N1N=C2c3cc(F)ccc3OC[C@H]2[C@H]1c1ccccc1)CCOC (racemic) [Example 56, (3SR,3aSR)-8-Fluoro-3-phenyl-3a,4-dihydro-3H-chromeno[4,3-c]pyrazole-2-carboxylic acid {3-[ethyl-(2-methoxy-ethyl)-amino]-propyl}-methyl-amide]	0.1 to 1
CCN(CCOC)CCN(C)C(=O)N1N=C2c3cc(F)ccc3OC[C@H]2[C@H]1c1ccccc1 (racemic) [Example 57, (3SR,3aSR)-8-Fluoro-3-phenyl-3a,4-dihydro-3H-chromeno[4,3-c]pyrazole-2-carboxylic acid {2-[ethyl-(2-methoxy-ethyl)-amino]-ethyl}-methyl-amide]	0.1 to 1
CCN(CCO)CCN(C)C(=O)N1N=C2c3cc(F)ccc3OC[C@@H]2[C@@H]1c1ccccc1 (racemic) [Example 58, (3RS,3aRS)-8-Fluoro-3-phenyl-3a,4-dihydro-3H-chromeno[4,3-c]pyrazole-2-carboxylic acid {2-[ethyl-(2-hydroxy-ethyl)-amino]-ethyl}-methyl-amide]	≤ 0.1
CCN(CCO)CCCN(C)C(=O)N1N=C2c3cc(F)ccc3OC[C@@H]2[C@@H]1c1ccccc1 (racemic) [Example 59, (3RS,3aRS)-8-Fluoro-3-phenyl-3a,4-dihydro-3H-chromeno[4,3-c]pyrazole-2-carboxylic acid {3-[ethyl-(2-hydroxy-ethyl)-amino]-propyl}-methyl-amide]	≤ 0.1
CN(CCNC1CC1)C(=O)N1N=C2c3cc(F)ccc3OC[C@H]2[C@H]1c1ccccc1 (racemic) [Example 60, (3SR,3aSR)-8-Fluoro-3-phenyl-3a,4-dihydro-3H-chromeno[4,3-c]pyrazole-2-carboxylic acid (2-cyclopropylamino-ethyl)-methyl-amide]	0.1 to 1
CCNCCN(C)C(=O)N1N=C2c3cc(F)ccc3OC[C@H]2[C@H]1c1ccccc1 (racemic) [Example 62, (3SR,3aSR)-8-Fluoro-3-phenyl-3a,4-dihydro-3H-chromeno[4,3-c]pyrazole-2-carboxylic acid (2-ethylamino-ethyl)-methyl-amide]	0.1 to 1
C=CCN(C)CCN(C)C(=O)N1N=C2c3cc(F)ccc3OC[C@H]2[C@H]1c1ccccc1 (racemic) [Example 63, (3SR,3aSR)-8-Fluoro-3-phenyl-3a,4-dihydro-3H-chromeno[4,3-c]pyrazole-2-carboxylic acid [2-(allyl-methyl-amino)-ethyl]-methyl-amide]	0.1 to 1
C#CCN(C)CCN(C)C(=O)N1N=C2c3cc(F)ccc3OC[C@H]2[C@H]1c1ccccc1 (racemic) [Example 64, (3SR,3aSR)-8-Fluoro-3-phenyl-3a,4-dihydro-3H-chromeno[4,3-c]pyrazole-2-carboxylic acid methyl-[2-(methyl-prop-2-ynyl-amino)-ethyl]-amide]	0.1 to 1
CC1CCN(CCN(C)C(=O)N2N=C3c4cc(F)ccc4OC[C@H]3[C@H]2c2ccccc2)CC1 (racemic) [Example 65, (3SR,3aSR)-8-Fluoro-3-phenyl-3a,4-dihydro-3H-chromeno[4,3-c]pyrazole-2-carboxylic acid methyl-[2-(4-methyl-piperidin-1-yl)-ethyl]-amide]	0.1 to 1
CC1CCN(CCCN(C)C(=O)N2N=C3c4cc(F)ccc4OC[C@H]3[C@H]2c2ccccc2)CC1 (racemic) [Example 66, (3SR,3aSR)-8-Fluoro-3-phenyl-3a,4-dihydro-3H-chromeno[4,3-c]pyrazole-2-carboxylic acid methyl-[3-(4-methyl-piperidin-1-yl)-propyl]-amide]	≤ 0.1
CN(C)C(=O)N1N=C2c3cc(F)ccc3OC[C@H]2[C@@H]1c1cccc(O)c1 (single isomer, unassigned) [Example 2b, (−)-cis-8-Fluoro-3-(3-hydroxy-phenyl)-3a,4-dihydro-3H-chromeno[4,3-c]pyrazole-2-carboxylic acid dimethylamide]	≤ 0.1
CN1CCC(N(C)C(=O)N2N=C3c4cc(F)ccc4OC[C@@H]3[C@@H]2c2cccc(O)c2)CC1 (single isomer, unassigned) [Example 3, (3RS,3aRS)-8-Fluoro-3-(3-hydroxy-phenyl)-3a,4-dihydro-3H-chromeno[4,3-c]pyrazole-2-carboxylic acid methyl-(1-methyl-piperidin-4-yl)-amide]	≤ 0.1
CN(CCN)C(=O)N1N=C2c3cc(F)ccc3OC[C@@H]2[C@@H]1c1ccccc1 (stereo in doubt) [Example 18, (3RS,3aRS)-8-Fluoro-3-phenyl-3a,4-dihydro-3H-chromeno[4,3-c]pyrazole-2-carboxylic acid (2-amino-ethyl)-methyl-amide]	≤ 0.1
CN(CCN)C(=O)N1N=C2c3cc(F)ccc3OC[C@H]2[C@H]1c1ccccc1 (stereo in doubt) [Example 18a, (3SR,3aSR)-8-Fluoro-3-phenyl-3a,4-dihydro-3H-chromeno[4,3-c]pyrazole-2-carboxylic acid (2-amino-ethyl)-methyl-amide]	≤ 0.1
CN1CCC(N(C)C(=O)N2N=C3c4cc(F)ccc4OC[C@H]3[C@H]2c2ccccc2)CC1 [Example 9a, (3S,3aS)-8-Fluoro-3-phenyl-3a,4-dihydro-3H-chromeno[4,3-c]pyrazole-2-carboxylic acid methyl-(1-methyl-piperidin-4-yl)-amide]	≤ 0.1
CN(C(=O)N1N=C2c3cc(F)ccc3OC[C@H]2[C@H]1c1ccccc1)C1CCNCC1 [Example 16a, (3S,3aS)-8-Fluoro-3-phenyl-3a,4-dihydro-3H-chromeno[4,3-c]pyrazole-2-carboxylic acid methyl-piperidin-4-yl-amide]	≤ 0.1
CN(C(=O)N1N=C2c3cc(F)ccc3OC[C@H]2[C@H]1c1cccc(O)c1)C1CCNCC1 [Example 27a, (3S,3aS)-8-Fluoro-3-(3-hydroxy-phenyl)-3a,4-dihydro-3H-chromeno[4,3-c]pyrazole-2-carboxylic acid methyl-piperidin-4-yl-amide]	≤ 0.1

System: RKO human colon adenocarcinoma cells (RKOp27 subclone), proliferating
Assay: not given
Conditions: not given

Molecule	−log EC50 [mol/l] RKO p27 uninduced (proliferating), anti-proliferative/cytotoxic activity
(3RS,3aRS)-8-Fluoro-3-phenyl-3a,4-dihydro-3H-chromeno[4,3-c]pyrazole-2-carboxylic acid ((R)-1-isopropyl-piperidin-3-ylmethyl)-methyl-amide and (3RS,3aRS)-8-Fluoro-3-phenyl-3a,4-dihydro-3H-chromeno[4,3-c]pyrazole-2-carboxylic acid ((S)-1-isopropyl-piperidin-3-ylmethyl)-methyl-amide [Example 26]	(proliferating) ≧7.0 mol/l
(3RS,3aRS)-8-Fluoro-3-phenyl-3a,4-dihydro-3H-chromeno[4,3-c]pyrazole-2-carboxylic acid methyl-((R)-1-methyl-piperidin-3-ylmethyl)-amide and (3RS,3aRS)-8-Fluoro-3-phenyl-3a,4-dihydro-3H-chromeno[4,3-c]pyrazole-2-carboxylic acid methyl-((S)-1-methyl-piperidin-3-ylmethyl)-amide [Example 24]	(proliferating) ≧7.0 mol/l
